Experimental data from doi:10.1101/2023.05.15.540887, “Comparative analysis of drug-like EP300/CREBBP acetyltransferase inhibitors” (bioRxiv, 2023).

Experiments:
MCF7 = assay: NCI-60 growth inhibition (sulforhodamine B); assay type: cell-based; settings: Homo sapiens, MCF7, Breast Cancer, negative log of Molar value, LCONC -8, EXPID 2301NS84
MDA-MB-435 = assay: NCI-60 growth inhibition (sulforhodamine B); assay type: cell-based, human; settings: MDA-MB-435 (Melanoma), negative log of Molar conc., LCONC -8
MDA-MB-231/ATCC = assay: NCI-60 growth inhibition (sulforhodamine B); assay type: cell-based; settings: Homo sapiens, Breast Cancer, negative log of Molar value, LCONC -8, EXPID 2301NS84, read-out: IC50 NLOGVALUE
EKVX = assay: NCI-60 growth inhibition (sulforhodamine B); assay type: cell-based, human; settings: EKVX (Non-Small Cell Lung Cancer), negative log of Molar conc., LCONC -8
RXF393 = assay: NCI-60 growth inhibition (sulforhodamine B); assay type: cell-based; settings: Homo sapiens, RXF 393, Renal Cancer, negative log of Molar value, LCONC -8, EXPID 2301NS84
[1] = test system: MCF10A PANK4 KO+PANK4 mutant (D623A) cells; assay: Sulforhodamine B cell growth assay, MCF10A PANK4 KO+PANK4 mutant; assay type: cell-based; settings: Homo sapiens; MCF-10A KO+PANK4 mutant, 72 h
SK-MEL-28 = assay: NCI-60 growth inhibition (sulforhodamine B); assay type: cell-based, human; settings: SK-MEL-28 (Melanoma), negative log of Molar conc., LCONC -8
K-562 = assay: NCI-60 growth inhibition (sulforhodamine B); assay type: cell-based, human; settings: K-562 (Leukemia), negative log of Molar conc., LCONC -8
DU-145 = assay: NCI-60 growth inhibition (sulforhodamine B); assay type: cell-based; settings: Homo sapiens, DU-145, Prostate Cancer, negative log of Molar value, LCONC -8, EXPID 2301NS84
NCI-60 cell line panel = assay: NCI-60 cell line screen growth inhibition (sulforhodamine B), whole panel; assay type: cell-based, human; settings: compared among 1-3
Excerpt: In principle the phenotype elicited by any single small molecule can be due to either an on- or off-target effect; however, if multiple chemically distinct small molecules designed to target a single gene all elicit the same phenotype, one’s confidence in their on-target mechanism becomes greater. As such, we sought to apply our knowledge of the comparative potencies of 1-3 to test whether the simplest phenotype caused by EP300/CREBBP inhibitors – cell death – was consistent with their effects on histone acetylation and a putative on-target mechanism. […] Subsequently, the COMPARE algorithm was used to compare the patterns of growth inhibition elicited by 1-3 in the NCI-60 assay against the >150,000 compounds analyzed in the screen to date.[29] […] Finally, the specificity of CPI-1612 (3) was directly assessed using quantitative LC-MS analysis of histone acetylation in treated cells,[33] focusing on four abundant histone acetylation markers whose writers are well-characterized: H3K9Ac (written by KAT2A/B), H3K14Ac (KAT7), H3K18Ac (EP300/CREBBP), and H3K23Ac (KAT6A/B; Fig. 3e).[26] […]

MDA-MB-468 = assay: NCI-60 growth inhibition (sulforhodamine B); settings: Homo sapiens
[2] = Homo sapiens, read-out: GI50 NLOGVALUE (converted)
[3] = Homo sapiens, read-out: LC50 NLOGVALUE
[4] = Homo sapiens, read-out: IC50 NLOGVALUE
[5] = read-out: GI50 NLOGVALUE (converted)

Structure (SMILES): C[C@H](CN[C@@H](C(=O)Nc1ccc(-c2cnn(C)c2)cn1)c1ccccc1)c1ccc(C#N)cc1 [CPI-1612]
- GI50 (MCF7; read-out: GI50 NLOGVALUE): < 0.01 µM
- IC50 (MCF7; read-out: IC50 NLOGVALUE): < 0.01 µM
- GI50 (MDA-MB-435; [2]): 0.0479 µM
- IC50 (MDA-MB-435; Homo sapiens, read-out: IC50 NLOGVALUE (converted)): 50.1 µM
- CC50 (MDA-MB-435; [3]): > 100 µM
- TGI NLOGVALUE (MDA-MB-435): 4
- IC50 (MDA-MB-231/ATCC): > 100 µM
- TGI NLOGVALUE (EKVX): 4
- GI50 (EKVX; [2]): 1.51 µM
- IC50 (EKVX; [4]): > 100 µM
- GI50 (RXF393; [5]): 55 µM
- IC50 (RXF393; read-out: IC50 NLOGVALUE): > 100 µM
- CC50 (RXF393; read-out: LC50 NLOGVALUE): > 100 µM
- IC50 [1]: 0.102 µM
- GI50 (SK-MEL-28; [2]): 14.1 µM
- IC50 (SK-MEL-28; [4]): > 100 µM
- CC50 (SK-MEL-28; [3]): > 100 µM
- TGI NLOGVALUE (SK-MEL-28): 4
- GI50 (K-562; Homo sapiens, K562, read-out: GI50 NLOGVALUE): < 0.01 µM
- IC50 (K-562; Homo sapiens, K562, read-out: IC50 NLOGVALUE): < 0.01 µM
- CC50 (K-562; Homo sapiens, K562, read-out: LC50 NLOGVALUE): > 100 µM
- TGI NLOGVALUE (K-562): 4
- GI50 (DU-145; [5]): 21.4 µM
- IC50 (DU-145; read-out: IC50 NLOGVALUE): > 100 µM
- CC50 (DU-145; read-out: LC50 NLOGVALUE): > 100 µM
- inhibition of cell growth, NCI-60 screen (NCI-60 cell line panel): most potent inhibitor of cell growth
- GI50 (MDA-MB-468; MDA-MB-468, read-out: GI50 NLOGVALUE): < 0.01 µM
- IC50 (MDA-MB-468; MDA-MB-468, read-out: IC50 NLOGVALUE): > 100 µM
